Results reported in PMC10180276, “Hot-Melt Extrusion as an Effective Technique for Obtaining an Amorphous System of Curcumin and Piperine with Improved Properties Essential for Their Better Biological Activities” (Molecules, 2023).
≈ marks a conversion by molar mass, not a printed value.

How the values were obtained:
[1] = PAMPA BBB permeability model; type: in vitro ADME; details: pH 7.4
Procedure: (§1) The injection volume differed depending on the assay. […] The method’s duration was 12 min.
The sandwich consists of two 96-well microfilter plates.

in vitro = details: PAMPA, pH 6.8
Procedure: Concentrations of curcumin and piperine during solubility, dissolution rate, and permeability studies were measured by high-performance liquid chromatography with the DAD detector (HPLC-DAD). In this study, a Shimadzu Nexera system (Shimadzu Corp., Kyoto, Japan) was used, equipped with an SCL-40 system controller, a DGU-403 degassing unit, a LC-40B XR solvent delivery module, a SIL-40C autosampler, a CTO-40C column oven, and a SPD-M40 photodiode array detector. For the stationary phase, a Dr. Maisch ReproSil-Pur Basic-C18 100 Å column with 5 µm particle size and 250 × 4.60 mm (Dr. Maisch, Ammerbuch-Entringen, Germany) was used. The mobile phase was acetonitrile:0.1% acetic acid (85:15 v/v). The mobile phase was vacuum-filtered through a 0.45 µm nylon filter (Phenomenex, Torrance, CA, USA). The experimental conditions were as follows: 0.5 mL/min flow rate, wavelengths of 420 nm for curcumin and 340 nm for piperine, and a column temperature of 30 °C. The injection volume differed depending on the assay. […] The method’s duration was 12 min. […]
In vitro gastrointestinal (GIT) and blood–brain barrier (BBB) permeability were studied using the PAMPA (Parallel Artificial Membrane Permeability Assay) models. […] The Papp factor was calculated according to the previously reported method. […] The results were expressed as a concentration in the acceptor solution.

[2] = Apparent solubility study in phosphate buffer pH 6.8; type: physicochemical
Procedure: as §1
(§2) Phosphate buffer at pH 6.8 was prepared according to the following description: in a 1000 mL volumetric flask, we placed 250 mL of 0.2 N potassium dihydrogen phosphate solution, then added 112 mL of 0.2 N sodium hydroxide solution, and filled the mixture up to 1000 mL with distilled water. High-quality pure water was prepared using a Direct-Q 3 UV purification system (Millipore, Molsheim, France, model Exil SA 67120).
An excess amount of raw compounds and systems (corresponding to 1.5 mg of each substance) was placed in a 10 mL glass tube; then, 2.0 mL of phosphate buffer (pH 6.8) was added and left at room temperature for 3 h.

[3] = Dissolution study, paddle apparatus, phosphate buffer pH 6.8; type: physicochemical; details: phosphate buffer pH 6.8, 37 °C, 50 rpm; after one hour (plateau)
Procedure: as §1, §2
The dissolution study was performed on the paddle apparatus (Agilent 708-DS dissolution apparatus, Santa Clara, CA, USA). The amount of the compound and systems corresponding to 7.0 mg of each plant-origin active ingredient was added to the gelatin capsule, placed in a spring used as a sinker, and then added to the dissolution medium. The vessels were filled with 500 mL of phosphate buffer, pH 6.8; the temperature was maintained at 37 °C, and the paddles were set at a stirring speed of 50 rotations per minute. The 2.0 mL samples were withdrawn at predetermined time points (5 min, 15 min, 30 min, 1 h, 2 h, 3 h, 4 h, 5 h, and 6 h) with the replacement of equal volumes of temperature-equilibrated media.

| SMILES | Papp at 3 h [1] | Papp at 3 h (in vitro) | solubility at 3 h [2] | curcumin dissolved, % of the dose [3] | piperine dissolved, % of the dose [3] |
| --- | --- | --- | --- | --- | --- |
| COc1cc(/C=C/C(=O)CC(=O)/C=C/c2ccc(O)c(OC)c2)ccc1O [curcumin] | 2.63 ×10⁻⁶ cm/s | 1.63 ×10⁻⁶ cm/s | 0.1 µg/mL (≈ 0.271 µM) | 2.54 ± 0.15% |  |
| O=C(/C=C/C=C/c1ccc2c(c1)OCO2)N1CCCCC1 [piperine] | 57.7 ×10⁻⁶ cm/s | 8.18 ×10⁻⁶ cm/s | 6 ± 0.1 µg/mL (≈ 21 µM) |  | 22.63 ± 0.67% |
